Here are results for four compounds from US20110311651A1, “CA[…] THE TREATMENT OF OCULAR CANCER” (priority 2008, published 2011).

One data set has as its system RB355 cells. As to the kind of experiment: Cytotoxicity assay for dose response in 384-well plates (Alamar Blue), RB355. In kind it is cell-based, human. As for the experimental part:
(§1) Cytotoxicity assay for dose response in 384-well microtiter plates. Dose response studies were performed in 384-well microtiter plates (#3712, Corning Inc., Corning, N.Y.) according to the following protocol: cells were added in 45 μL medium to the screening plates using Flexdrop. After 72 h incubation was added 5 μL Alamar Blue using Flexdrop. The cells were then incubated for another 24 h, and the fluorescence intensity was read on LEADseeker™ Multimodality Imaging System as previously described. To calculate the IC50 for each compound toward each cell line, the dose response was assessed in duplicate and using 12 point doubling dilutions with 100 μM compound concentration as the upper limit. The dose response curve for each set of data was fitted separately, and the two IC50 values obtained were averaged.
To explore the structure activity relationship (SAR) within this chemical class a collection of 35 cardenolides and derivatives was constituted. The dose response for each compound toward the ocular cancer cell lines Y79, RB355, WERI-Rb-1 and C918 was then assessed.
Compared potency of the cardenolide ouabain with known agents in cell models of retinoblastoma. The potency of a representative of the cardenolide scaffold was compared to known effective agents against retinoblastoma. […]
A general note: Alamar Blue is a resazurin reagent that responds to reducing activity.

Data set [1] relates to Y79 cells. The experiment in a line: Cytotoxicity assay for dose response in 384-well plates (Alamar Blue), Y79. In kind it is cell-based, human. As to the method:
as §1
Compared potency of the cardenolide ouabain with known agents in cell models of retinoblastoma. The potency of a representative of the cardenolide scaffold was compared to known effective agents against retinoblastoma. Namely, the dose response of the drug ouabain was tested with the human retinoblastoma cell lines Y79 and RB355, and its potency was compared to vincristine, etoposide, carboplatin, cisplatin, nutlin-3 and calcitriol. […] The activity of vincristine toward Y79 cells reached a plateau at 50% inhibition, which prevented the IC50 for this compound from being calculated.

For data set [2], the system named is Y79 cells. The experiment in a line: Apoptosis assay, immunofluorescence detection of activated Caspase-3. Type of data set: cell-based, human. As to conditions: 0.5 μM, 72 h, 1% DMSO. As to the method:
Apoptosis assay. Y79 cells seeded in culture medium in a 24-well plate were treated with either vincristine, etoposide, or ouabain at various concentrations in 1% DMSO (v/v) or with 1% DMSO (v/v) alone as a carrier control for 48 h or 72 h. After a wash in PBS, cells were fixed in solution in […] in PBS for 10 minutes. After a wash in PBS, cells for each condition were dried on a glass slide and washed once with water.
The immunofluorescence detection of cleaved Caspase-3 was performed at the Memorial Sloan-Kettering Cancer Center Molecular Cytology Core Facility using a Discovery XT processor (Ventana Medical Systems, Tucson, Ariz.). A rabbit polyclonal Cleaved Caspase 3 (Asp 175) antibody (#9661 L, Cell Signaling, Danvers, Mass.) was used at a concentration of 0.1 μg/ml. […] Automated fluorescence imaging of the green channel (activated Caspase-3) and blue channel (nuclei) was performed using an IN Cell Analyzer 1000 (GE Healthcare).
Compared effect of ouabain and clinical agents on apoptosis of Y79 cells. […] The drug concentrations used in this experiment were previously determined according to a pilot study where treated Y79 cells were live-stained with the dye Yo-Pro, which stains apoptic cells (Idziorek et al., J. Immunol. Methods 1995, 185, 249-258). […] Baseline Caspase-3 activation was evaluated with control Y79 cells treated with 1% DMSO (v/v) (FIG. 6A).

Data set [3] can be described thus: Body weight and signs of toxicity in the xenograft study. Particulars: throughout the treatment period. Type of data set: in vivo, mouse. As to the method: In vivo studies. Subcutaneous xenograft experiments were performed at the Memorial Sloan-Kettering Cancer Center Antitumor Assessment Core Facility. Y79LUC cells (10E6) embedded in matrigel (BD Biosciences, San Jose, Calif.) were injected subcutaneously in the right flank of 8-weeks old ICR/SCID male mice. Treatment started when the tumors reached approximately 250 mm^3. The mice were randomized into three groups and two mice per group were treated with either 10% DMSO (v/v) (control group), 1.5 mg/kg ouabain or 15 mg/kg ouabain. Treatment was performed by continuous subcutaneous infusion using osmotic minipumps (#1007D, Alzet, Cupertino, Calif.). Tumor size was measured externally two times a week with a caliper. Body weight of each mouse was monitored as well as other signs of toxicity throughout the treatment period. Bioluminescent imaging of the tumors was performed once a week and prior to sacrifice as follows: mice were anesthetized by isofluorane inhalation and injected with D-luciferin at 50 mg/Kg (Xenogen) intraperitoneally; photonic emission was measured with the In Vivo Imaging System (IVIS 200, Xenogen) with a collection time of 5 seconds.
Assessment of the in vivo efficacy of ouabain in a xenograft model of retinoblastoma. The therapeutic effect of the drug ouabain in a mouse xenograft model of retinoblastoma was also investigated. […]

Data set [4] has as its system Y79 cells. As to the kind of experiment: Pilot study, live staining of treated cells with the dye Yo-Pro. Type of data set: cell-based, human. Particulars: concentrations higher than 0.5 μM. As for the experimental part: Compared effect of ouabain and clinical agents on apoptosis of Y79 cells. To determine whether the anti-proliferative effects of the drug ouabain was mediated by induction of apoptosis, immunostaining of activated Caspase-3 in Y79 cells treated with cardenolides or known agents for retinoblastoma for 72 h (green channel) was performed; treated cells were also stained with Hoechst to image the nuclei (blue channel) (FIG. 6). The drug concentrations used in this experiment were previously determined according to a pilot study where treated Y79 cells were live-stained with the dye Yo-Pro, which stains apoptic cells (Idziorek et al., J. Immunol. Methods 1995, 185, 249-258). Based on this study, 72 h was identified as the optimum incubation time and drug concentrations were selected that maximized the number of apoptotic cells (data not shown). Baseline Caspase-3 activation was evaluated with control Y79 cells treated with 1% DMSO (v/v) (FIG. 6A).

Entries after “also recorded” stand apart in the source; their conditions may differ.

`N.N.O=C([O-])C1(C(=O)[O-])CCC1.[Pt+2]` [Carboplatin, carboplatin]: the “activity toward RB355 cells below 100 μM” value in the data set with RB355 cells is listed as “neither caboplatin or calcitriol had any significant activity”. For the same compound, in the data set on Y79 cells [1], the “activity toward Y79 cells below 100 μM” value is listed as “did not demonstrate any significant activity”.
On the same counts, the results for `C=C1/C(=C\C=C2/CCC[C@]3(C)[C@@H]([C@H](C)CCCC(C)(C)O)CC[C@@H]23)C[C@@H](O)C[C@@H]1O` [calcitriol] are “neither caboplatin or calcitriol had any significant activity” and “did not demonstrate any significant activity”.
In the case of `N.N.[Cl][Pt][Cl]` [cisplatin], the “activity toward Y79 cells below 100 μM” value in the data set on Y79 cells [1] is given as “did not demonstrate any significant activity”.
As for `C[C@@H]1O[C@@H](O[C@H]2C[C@@H](O)[C@]3(CO)[C@H]4[C@H](O)C[C@]5(C)[C@@H](C6=CC(=O)OC6)CC[C@]5(O)[C@@H]4CC[C@]3(O)C2)[C@H](O)[C@H](O)[C@H]1O` [ouabain], the “apoptosis (activated Caspase-3) compared to baseline” value in the data set with Y79 cells [2] is recorded as “still induced significant apoptosis”. Also, the toxicity entry in data set [3] (15 mg/kg) was “did not induce any significant toxicity; also recorded: no signs of toxicity were observed”. For the same compound, the “average body weight of treated versus control animals” value in data set [3] (1.5 and 15 mg/kg) was “did not differ significantly”. For the same compound, the “effect on Y79 cells in the Yo-Pro pilot study” value in the data set with Y79 cells [4] was “erradicated Y79 cells”.
